Test system: HCT116 spheroids
Assay: Multicellular tumour spheroids
Format: cell-based
Method: FIGS. 5A, 5B, 5C, 5D, 5E, 5F, 5G, 5H, 5I, 5J, 5K, 5L and 5M show how C75 disrupts or reduces the growth of HeLa, HCT116 and A549 spheroids. FIG. 5A) images show HeLa spheroids over time (3 days) before and after treatment with control (1 μM C87; n=10), 250 nM (n=6) or 500 nM (n=10) of C75. The scale bar is 100 μm. FIG. 5B) is a series images of HeLa spheroids after three days of treatment with control (500 nM C87) or 500 nM C75. The spheroids were stained for fluorescein diacetate (to detect live cells) and propidium iodide (to detect dead cells). […] The scale bar is 100 μm. FIG. 5C) is a line graph showing the change in spheroid area (μm^2) for each day and treatment as indicated. Bars show standard deviation and the asterisks are p<0.05 as determined by the student's t test. FIG. 5D) images show HeLa spheroids over 3 days before and after treatment with empty nanoparticles (control; n=3) or 250 nM of nanoparticle-encapsulated C75 (n=3). The scale bar is 100 μm. […] Bars show standard deviation and the asterisks are p<0.05 as determined by the student's t test. FIG. 5F) is a series of images of HCT116 spheroids treated with control (1 μM C87; n=10), 500 nM C75 (n=10) and 1 μM C75 (n=10). FIG. 5G) is a series images of HCT116 spheroids after six days of treatment with control (1 μM C87) or 1 μM C75. The spheroids were stained for fluorescein diacetate (live cells) and propidium iodide (dead cells). […] FIG. 5H) is a line graph showing the growth in surface area (%) of HCT116 spheroids treated with control (1 μM C87), 500 nM C75 and 1 μM C75 after six days. FIG. 5I) is a series of images of A549 spheroids treated with control (1 μM C87, n=6), 500 nM C75 (n=6), and 1 μM C75 (n=6) over 5 days. The scale bar is 100 μm. FIG. 5J) is a series of images of A549 spheroids after six days of treatment with control (750 nM C87) or 1 μM C75. The spheroids were stained for fluorescein diacetate (live cells) and propidium iodide (dead cells). […] Bars show standard deviation and the asterisks are p<0.05 as determined by the student's t test. FIG. 5L) images show A549 spheroids over 6 days before and after treatment with empty nanoparticles (control; n=3) or 500 nM of nanoparticle-encapsulated C75 (n=3). The scale bar is 100 μm. […] Bars show standard deviation and the asterisks are p<0.05 as determined by the student's t test.
FIG. 11A) is a series of images of HCT116 spheroids treated with control (DMSO), 10 nM paclitaxel, 250 nM C75 or both for 6 days. […] The scale bar for the images is 100 μm. […] As shown in the images, adding paclitaxel and C75 in combination led to regression in spheroid size compared to each treatment on its own.
The thienoisoquinoline compounds may also have potential for use in combinatorial therapies. […]

Compound: COc1ccc(S(=O)(=O)N2Cc3ccccc3-c3sc(Br)cc32)cc1 [Compound C75]
- spheroid growth, single drug (10 nM paclitaxel or 250 nM C75 alone, 6 days): failed to grow
- spheroid growth, combination (250 nM C75 + 10 nM paclitaxel, 6 days): regressed in size
- effect on spheroids (HCT116 spheroids): regress the growth

Reference: patent US20200276181A1, “THIENOISOQUINOLINES AND THEIR DERIVATIVES FOR TARGETING TUBULIN, CH-TOG, AURORA A KINASE, TPX2, CDK5RAP2 AND/OR ASPM” (VALORBEC, SEC, priority 2017, published 2020)
